According to PMC7109127 (British Journal of Cancer, 2020):
Several values for one entry are separate records, joined by “and”; a condition that tells them apart may be missing. Equal entries are not always repeated. Where two headings read alike, the source gives them in different places.

Assays:
[1] = in vivo
Protocol: The RP2D was defined as the MTD.
The treatment schedule was modified as there was concern on tolerability of longer dosing in patients with underlying cirrhosis. […] Study treatment was continued until disease progression or unacceptable toxicity.
Safety assessments were done at baseline, on cycle 1 days 1 and 15, and on day 1 of each cycle thereafter. Tumour assessments were performed by computed tomography or magnetic resonance imaging at baseline and every 8 weeks thereafter. Confirmatory imaging was performed within 6 weeks in patients with complete response or partial response. AEs were assessed using the National Cancer Institute Common Terminology Criteria for Adverse Events (CTCAE) v4.0. Blood sample collection for pharmacokinetic (PK) and pharmacodynamic (PD) analysis was performed on cycle 1 days 1 and 15 pre-dose as well as 2 and 4 h post dose.

[2] = cited from earlier work
[3] = system: PDGFRβ; experiment: in vitro inhibition of PDGFRβ phosphorylation
[4] = TIVO-1; cited from earlier work
[5] = system: c-kit; settings: in vitro; read-out: half-maximal inhibitory concentration, c-kit phosphorylation; cited from earlier work
[6] = background statement; cited from earlier work
[7] = system: SK-HEP-1 cells; settings: cited from earlier work
[8] = phase 1b/2 study, plasma pharmacokinetics (LC-MS/MS, NCA and nonlinear mixed-effects model); assay type: in vivo, patients; design: AUC0-4: concentration or dose not given beside the values
Protocol: LC-MS/MS analysis of the extracted samples was performed using an Agilent Technologies (Santa Clara, California) HPLC system and the API 3000 mass spectrometer (Sciex, Framingham, MA) with electrospray ionisation. Chromatographic separation was achieved using a biphasic gradient over a Cortecs C18 column (2.1 × 50 mm^2, Waters Corporation, Milford, MA) preceded by a Cortecs C18+VanGuard Cartridge (2.1 × 5 mm^2, Waters Corporation). Analytes were detected using multiple reaction monitoring in positive ion mode.
A nonlinear mixed-effects model was developed using first-order conditional estimation with interaction (FOCE-I) with the Laplacian option selected. This estimator was chosen as it is more suitable to modelling sparse data sets. One- and two-compartment structural models were tested with first-order absorption, both with and without a separate bioavailability term. Estimates for inter-subject variability were tested on all PK parameters using exponential relationships and were included where they could be confidently estimated. Inter-occasion variability between cycle 1 day 1 and cycle 1 day 15 was also tested. The residual unexplained variability in drug concentrations was tested with additive, proportional, and combined additive and proportional error models. Model selection was performed on the basis of the negative log-likelihood objective function (OFV) and standard goodness-of-fit and diagnostic plots. The final model was composed of one disposition compartment with first-order absorption and elimination. […] To facilitate comparison with previous studies, AUCs from 0 to 4 and 0 to 24 h were calculated from each individual’s model-predicted PK profile. Similarly, the maximum concentration (Cmax) and time of maximum concentration in a given dosing interval (tmax) were estimated both from the original data and the model prediction. The analysis was performed with NONMEM 7.4.1 (ICON plc, Dublin, Ireland), integrated with PSN 4.6.0 (psn.sourceforge.net) and using the Pirana 2.9.2 interface (pirana-software.com).

[9] = system: metastatic renal cell carcinoma; settings: TIVO-1; cited from earlier work
[10] = all solid tumours, 1 mg dose level
[11] = individual patient estimate (Subject ID in c0)
[12] = individual patient, Day 1, NCA and Observation
[13] = individual patient, Day 15, NCA and Observation

Which results are given for COc1cc2nccc(Oc3ccc(NC(=O)Nc4cc(C)on4)c(Cl)c3)c2cc1OC [tivozanib]?
Decreased appetite, grade 3 and 4 ([1]; human): 3.7%; Diarrhoea, grade 3–4 ([1]; human): 0%; Dysphonia, grade 3 and 4 ([1]; human): 0%; Fatigue, grade 3–4 ([1]; human): 26%; Hypertension, grade 3 and 4 ([1]; human): 11%; Increased bilirubin, grade 3 and 4 ([1]; human): 7.4%; Nausea, grade 3 and 4 ([1]; human): 0%; PPEDS (palmar–plantar erythrodysesthesia syndrome), Total ([1]; human): 11%; PPEDS, Total ([1]; human): 3 n; Palmar–plantar erythrodysesthesia, grade 3 and 4 ([1]; human): 3.7%; Stomatitis, grade 3 and 4 ([1]; human): 0%; Vomiting, grade 3 and 4 ([1]; human): 0%; dose reductions for toxicity [1]: six; permanently discontinued from study treatment for toxicity [1]: four; tolerability [1]: well tolerated; Dry skin, any grade [2, 10]: 28%; Fatigue, any grade [2, 10]: 55%; Fatigue, grade 3–4 [2, 10]: 6%; Hypertension, any grade [2, 10]: 39%; Hypertension, grade 3–4 [2, 10]: 28%; Palmar–plantar erythrodysesthesia, any grade [2, 10]: 22%; maximum-tolerated dose (MTD) and RP2D ([2]; once daily, 4 weeks on–2 weeks off, advanced refractory solid malignancies): 1.5 mg; activity against PDGFRβ, times higher compared to lenvatinib [3]: 197 times; activity against PDGFRβ, times higher compared to sorafenib [3]: 46 times; diarrhoea incidence [4]: 23%; hypertension incidence [4]: 44%; palmar–plantar erythrodysesthesia incidence [4]: 14%; IC50 [5]: 1.63 nM; liver toxicities or tissue accumulation [6]: no associated liver toxicities or tissue accumulation; tumour growth inhibition ([7]; daily oral 0.2 mg/kg for 2 weeks): ~60%; tumour inhibition ([7]; daily oral 1 mg/kg): ~90%; tmax, Median ([8]; Day 1, 1 mg, NCA and observation): 4.067 h; AUC(0-t) ([8]; human, plasma, oral, 1 mg, Day 1, 1 mg, Model prediction, read-out: AUC0–4, Mean): 0.0143 µg·h/mL; AUC(0-t) ([8]; human, plasma, oral, 1 mg, Day 1, 1 mg, Model prediction, read-out: AUC0–24, Mean): 0.176 µg·h/mL; Cmax ([8]; human, plasma, oral, 1 mg, Day 1, 1 mg, Model prediction, read-out: Cmax, Mean): 0.00875 µg/mL; tmax ([8]; human, plasma, oral, 1 mg, Day 1, 1 mg, Model prediction, read-out: tmax, Median): 13.3 h; AUC(0-t) ([8]; human, plasma, oral, 1 mg, Day 1, 1 mg, NCA and observation, read-out: AUC0–4, Mean): 0.0142 µg·h/mL; Cmax ([8]; human, plasma, oral, 1 mg, Day 1, 1 mg, NCA and observation, read-out: Cmax, Mean): 0.00654 µg/mL; tmax ([8]; human, plasma, oral, 1 mg, Day 1, 1 mg, NCA and observation, read-out: tmax, Median): 4.07 h; AUC(0-t) ([8]; human, plasma, oral, 1 mg, Day 15, 1 mg, Model prediction, read-out: AUC0–4, Mean): 0.19 µg·h/mL; AUC(0-t) ([8]; human, plasma, oral, 1 mg, Day 15, 1 mg, Model prediction, read-out: AUC0–24, Mean): 1.1 µg·h/mL; Cmax ([8]; human, plasma, oral, 1 mg, Day 15, 1 mg, Model prediction, read-out: Cmax, Mean): 0.0507 µg/mL; tmax ([8]; human, plasma, oral, 1 mg, Day 15, 1 mg, Model prediction, read-out: tmax, Median): 7 h; AUC(0-t) ([8]; human, plasma, oral, 1 mg, Day 15, 1 mg, NCA and observation, read-out: AUC0–4, Mean): 0.184 µg·h/mL; Cmax ([8]; human, plasma, oral, 1 mg, Day 15, 1 mg, NCA and observation, read-out: Cmax, Mean): 0.0587 µg/mL; tmax ([8]; human, plasma, oral, 1 mg, Day 15, 1 mg, NCA and observation, read-out: tmax, Median): 2.05 h; Vd/F ([8]; human, plasma, oral, 1 mg, typical population value, read-out: Apparent Volume of Distribution (V/F)): 105 L; Apparent systemic clearance [8, 11]: 0.99 L/h and 0.81 L/h and 0.80 L/h; Apparent volume of distribution [8, 11]: 159 L; AUC0-4 [8, 12]: 0.0202 µg·h/mL and 0.0216 µg·h/mL and 0.0359 µg·h/mL and 0.0277 µg·h/mL and 0.0015 µg·h/mL and 0.011 µg·h/mL and 0.007 µg·h/mL and 0.0162 µg·h/mL and 0.0303 µg·h/mL and 0.018 µg·h/mL and 0.0181 µg·h/mL and 0.0106 µg·h/mL and 0.0107 µg·h/mL and 0.0166 µg·h/mL and 0.0138 µg·h/mL and 0.0068 µg·h/mL and 0.0155 µg·h/mL and 0.0103 µg·h/mL and 0.0036 µg·h/mL and 0.0006 µg·h/mL and 0.0035 µg·h/mL and 0.0215 µg·h/mL and 0.0188 µg·h/mL and 0.0089 µg·h/mL and 0.0047 µg·h/mL and 0.0245 µg·h/mL and 0.0194 µg·h/mL; Cmax [8, 12]: 0.00857 µg/mL and 0.0136 µg/mL and 0.0163 µg/mL and 0.00953 µg/mL and 0.00142 µg/mL and 0.00362 µg/mL and 0.00278 µg/mL and 0.00693 µg/mL and 0.0118 µg/mL and 0.00823 µg/mL and 0.00682 µg/mL and 0.00584 µg/mL and 0.0047 µg/mL and 0.00756 µg/mL and 0.00471 µg/mL and 0.0034 µg/mL and 0.00518 µg/mL and 0.00848 µg/mL and 0.0014 µg/mL and 0.000616 µg/mL and 0.002 µg/mL and 0.00729 µg/mL and 0.00779 µg/mL and 0.00582 µg/mL and 0.00297 µg/mL and 0.00863 µg/mL and 0.0106 µg/mL; tmax [8, 12]: 4.067 h and 4.417 h and 4.05 h and 2.167 h and 4.083 h and 4.183 h and 4.017 h and 4.2 h and 4.033 h and 2.067 h and 4.133 h and 5.25 h and 7.667 h and 2.1 h and 4.35 h and 4.167 h; AUC0-4 [8, 13]: 0.333 µg·h/mL and 0.5585 µg·h/mL and 0.3608 µg·h/mL and 0.2057 µg·h/mL and 0.1541 µg·h/mL and 0.1776 µg·h/mL and 0.1129 µg·h/mL and 0.103 µg·h/mL and 0.2612 µg·h/mL and 0.1565 µg·h/mL and 0.15 µg·h/mL and 0.1348 µg·h/mL and 0.1343 µg·h/mL and 0.1481 µg·h/mL and 0.2397 µg·h/mL and 0.1758 µg·h/mL and 0.1635 µg·h/mL and 0.1547 µg·h/mL and 0.1856 µg·h/mL and 0.1063 µg·h/mL; Cmax [8, 13]: 0.0895 µg/mL and 0.201 µg/mL and 0.104 µg/mL and 0.0588 µg/mL and 0.0431 µg/mL and 0.047 µg/mL and 0.0311 µg/mL and 0.0323 µg/mL and 0.0709 µg/mL and 0.0612 µg/mL and 0.0499 µg/mL and 0.0333 µg/mL and 0.0378 µg/mL and 0.0694 µg/mL and 0.0536 µg/mL and 0.0434 µg/mL and 0.0403 µg/mL and 0.0387 µg/mL and 0.0574 µg/mL and 0.0473 µg/mL and 0.0308 µg/mL; tmax [8, 13]: 2.06 h and 2.01 h and 2.1 h and 2.03 h and 2.07 h and 2.12 h and 2 h and 2.02 h and 4.12 h and 4.09 h and 3.91 h; Inter-individual variability (IIV) in CL/F ([8]; population model): 42.4 %CV; Inter-individual variability (IIV) in V/F ([8]; population model): 45.8 %CV; Inter-individual variability (IIV) in ka/F ([8]; population model): 57.5 %CV; Apparent Systemic Clearance (CL/F) ([8]; typical population value): 0.803 L/h; Apparent first-order absorption rate constant (ka/F) ([8]; typical population value): 0.239 h⁻¹; overall response rate (ORR) [9]: 33.1%; progression-free survival (PFS) [9]: 11.9 months
